Measurements: patent US20080269052A1, “USE of PYRIDINE-2-OXY-3-CARBOXAMIDES AS SAFENERS” (priority 2007, published 2008)

How the values were obtained:
Type in all cases: in vivo
[1] = system: economically important harmful plants (weed grases and broad-leaved weeds); assay: Post-emergence herbicide action against harmful plants in the presence of safener; conditions: in combination with safener
Description: (§1) The damage to the plants is scored visually using a scale of 0-100%, in comparison to control plants: 0%=no noticeable effect compared to the untreated plant 100%=the treated plants dies. Seeds or rhizome pieces of monocotyledonous and dicotyledonous harmful plants and crop plants are placed in sandy loam soil in plastic pots, covered with soil and cultivated in the greenhouse under good growth conditions. Alternatively, harmful plants encountered in paddy rice cultivation are cultivated in pots in which the surface of the soil is covered by up to 2 cm of water. Ten to twenty days after sowing, the test plants are treated at the one to three-leaf stage. The herbicide/safener active compound combinations according to the invention, formulated as water-soluble powders or suspensions, and in parallel tests the individual active compounds formulated in a corresponding manner, are sprayed at various dosages at a water application rate of 300 l/ha (converted) onto the green parts of the plants, and, after the test plants were left to stand in the greenhouse for about 2 to 3 weeks under optimum growth conditions, the effect of the preparations is scored visually in comparison to untreated controls. In the case of rice or harmful plants encountered in the cultivation of rice, the active compounds are also added directly to the irrigation water (application analogously to the so-called granule application) or sprayed onto the plants and into the irrigation water.

[2] = system: economically important harmful plants (weed grases and broad-leaved weeds); assay: Pre-emergence herbicide action against harmful plants in the presence of safener; conditions: in combination with safener
Description: (§2) The damage to the plants is scored visually using a scale of 0-100%, in comparison to control plants: 0%=no noticeable effect compared to the untreated plant 100%=the treated plants dies. Seeds or rhizome pieces of monocotyledonous and dicotyledonous weed plants and crop plants were placed in sandy loam soil in plastic pots and covered with soil. The herbicide/safener active compound combinations according to the invention, formulated as water-soluble powders or suspensions, and in parallel tests the individual active compounds formulated in a corresponding manner, were then, at various dosages at a water application rate of 300 to 800 l/ha (converted), applied to the surface of the covering soil. After the treatment, the pots were placed in the greenhouse and kept under good growth conditions for the weeds and the crop plants. Visual scoring of the plant damage or emergence damage was carried out after the test plants had emerged after a test period of 2 to 4 weeks, in comparison to untreated controls.

[3] = system: Triticum aestivum (spring wheat); assay: Post-emergence herbicide action and safener action, spring wheat; conditions: TRZAS
Description: as §1

Zea mays (corn) [4] = assay: Pre-emergence herbicide action and safener action, corn; conditions: ZEAMX
Description: as §2

Hordeum vulgare (barley) [5] = assay: Seed treatment with safeners, barley; conditions: HORVU
Description: (§3) The damage to the plants is scored visually using a scale of 0-100%, in comparison to control plants: 0%=no noticeable effect compared to the untreated plant 100%=the treated plants dies. Seeds of crop plants were mixed in bottles with the safeners according to the invention, formulated as suspension or emulsion concentrates, and water, and the mixture was shaken well so that the seeds were coated evenly with the formulation of the safener in question. The seeds or the emerged plants were then tested with herbicides in the pre- or post-emergence method according to the tests of examples 3.3 and 3.2, respectively.

Oryza sativa (rice) [6] = assay: Pre-emergence herbicide action and safener action, rice; conditions: herbicide (2.2.16) oxadiazon 400 g of AS/ha, safener (Ia) 75 g of AS/ha, ORYSA
Description: as §2

Zea mays (corn) [7] = assay: Post-emergence herbicide action and safener action, corn; conditions: safener (Ia) 50 g of AS/ha, ZEAMX
Description: as §1

Hordeum vulgare (barley) [8] = assay: Post-emergence herbicide action and safener action, barley; conditions: safener (Ia) 100 g of AS/ha, HORVU
Description: as §1

Zea mays (corn) [9] = assay: Seed treatment with safeners, corn; conditions: ZEAMX
Description: as §3

Oryza sativa (rice) [10] = assay: Post-emergence herbicide action and safener action, rice; conditions: ORYSA
Description: as §1

[11] = system: Triticum aestivum (spring wheat); assay: Seed treatment with safeners, spring wheat; conditions: safener (Ia) 1.0 g of AS/kg seed, TRZAS
Description: as §3

[12] = herbicide (1.2.1.58) thiencarbazone-methyl 15 g of AS/ha

SMILES: NC(=O)c1ccc(C(F)(F)F)[nH]c1=O [safener (Ia), 2-oxo-6-trifluoromethyl-1,2-dihydropyridine-3-carboxamide]
- action of the herbicide against economically important harmful plants [1]: not, or not substantially, adversely affected
- action of the respective herbicide against economically important harmful plants [2]: not, or not substantially, adversely affected
- Reduction of the harmful effect ([3]; herbicide (1.1.1.10) tembotrione 20 g of AS/ha, safener (Ia) 80 g of AS/ha): category A (category A = 50-100% reduction of the harmful action)
- Reduction of the harmful effect ([3]; herbicide (1.1.2.10) picolinafen 200 g of AS/ha, safener (Ia) 100 g of AS/ha): category A (category A = 50-100% reduction of the harmful action)
- Reduction of the harmful effect ([3]; herbicide (1.2.1.14) mesosulfuron-methyl 40 g of AS/ha, safener (Ia) 80 g of AS/ha): category A (category A = 50-100% reduction of the harmful action)
- Reduction of the harmful effect ([3]; herbicide (1.2.1.58) thiencarbazone-methyl 15 g of AS/ha, safener (Ia) 100 g of AS/ha): category A (category A = 50-100% reduction of the harmful action)
- Reduction of the harmful effect ([3]; herbicide (1.3.1.20c) fenoxaprop-P-ethyl 100 g of AS/ha, safener (Ia) 20 g of AS/ha): category A (category A = 50-100% reduction of the harmful action)
- Reduction of the harmful effect ([3]; herbicide (2.2.12) flumioxazin 100 g of AS/ha, safener (Ia) 50 g of AS/ha): category B (category B = 20-49% reduction of the harmful action)
- Reduction of the harmful effect (Zea mays (corn) [4]; herbicide (1.1.1.22) isoxaflutole 300 g of AS/ha, safener (Ia) 300 g of AS/ha): category A (category A = 50-100% reduction of the harmful action)
- Reduction of the harmful effect (Zea mays (corn) [4]; herbicide (1.4.4.17) flufenacet 125 g of AS/ha, safener (Ia) 150 g of AS/ha): category A (category A = 50-100% reduction of the harmful action)
- Reduction of the harmful effect (Hordeum vulgare (barley) [5]; herbicide (1.2.1.14) mesosulfuron-methyl 30 g of AS/ha, safener (Ia) 0.5 g of AS/kg seed): category A (category A = 50-100% reduction of the harmful action)
- Reduction of the harmful effect (Hordeum vulgare (barley) [5]; herbicide (1.2.1.58) thiencarbazone-methyl 15 g of AS/ha, safener (Ia) 1.0 g of AS/kg seed): category A (category A = 50-100% reduction of the harmful action)
- Reduction of the harmful effect (Oryza sativa (rice) [6]): category B (category B = 20-49% reduction of the harmful action)
- Reduction of the harmful effect (Zea mays (corn) [7]; herbicide (1.2.1.11b) iodosulfuron-methyl-sodium 100 g of AS/ha): category B (category B = 20-49% reduction of the harmful action)
- Reduction of the harmful effect (Zea mays (corn) [7]; herbicide (1.2.1.48) imazethapyr 100 g of AS/ha): category A (category A = 50-100% reduction of the harmful action)
- Reduction of the harmful effect (Zea mays (corn) [7]; herbicide (2.2.12) flumioxazin 50 g of AS/ha): category A (category A = 50-100% reduction of the harmful action)
- Reduction of the harmful effect (Hordeum vulgare (barley) [8]; herbicide (1.1.1.10) tembotrione 20 g of AS/ha): category A (category A = 50-100% reduction of the harmful action)
- Reduction of the harmful effect (Hordeum vulgare (barley) [8]; [12]): category A (category A = 50-100% reduction of the harmful action)
- Reduction of the harmful effect (Hordeum vulgare (barley) [8]; herbicide (1.3.1.20c) fenoxaprop-P-ethyl 400 g of AS/ha): category A (category A = 50-100% reduction of the harmful action)
- Reduction of the harmful effect (Zea mays (corn) [9]; herbicide (1.1.1.22) isoxaflutole 200 g of AS/ha, safener (Ia) 0.5 g of AS/kg seed): category A (category A = 50-100% reduction of the harmful action)
- Reduction of the harmful effect (Zea mays (corn) [9]; herbicide (1.2.1.58) thiencarbazone-methyl 5 g of AS/ha, safener (Ia) 1.0 g of AS/kg seed): category A (category A = 50-100% reduction of the harmful action)
- Reduction of the harmful effect (Oryza sativa (rice) [10]; herbicide (1.1.1.4) mesotrione 400 g of AS/ha, safener (Ia) 75 g of AS/ha): category A (category A = 50-100% reduction of the harmful action)
- Reduction of the harmful effect (Oryza sativa (rice) [10]; herbicide (1.1.1.4) mesotrione 600 g of AS/ha, applied to the water around the test plants (paddy rice conditions), safener (Ia) 75 g of AS/ha): category A (category A = 50-100% reduction of the harmful action)
- Reduction of the harmful effect (Oryza sativa (rice) [10]; herbicide (1.2.1.15) foramsulfuron 15 g of AS/ha, safener (Ia) 100 g of AS/ha): category B (category B = 20-49% reduction of the harmful action)
- Reduction of the harmful effect (Oryza sativa (rice) [10]; herbicide (1.2.1.58) thiencarbazone-methyl 10 g of AS/ha, safener (Ia) 300 g of AS/ha): category A (category A = 50-100% reduction of the harmful action)
- Reduction of the harmful effect (Oryza sativa (rice) [10]; herbicide (1.2.1.62b) bispyribac-sodium 200 g of AS/ha, safener (Ia) 75 g of AS/ha): category A (category A = 50-100% reduction of the harmful action)
- Reduction of the harmful effect (Oryza sativa (rice) [10]; herbicide (1.3.1.20c) fenoxaprop-P-ethyl 100 g of AS/ha, safener (Ia) 300 g of AS/ha): category A (category A = 50-100% reduction of the harmful action)
- Reduction of the harmful effect (Oryza sativa (rice) [10]; herbicides (1.2.1.14) mesosulfuron-methyl + (1.2.1.11b) iodosulfuron-methyl-sodium 4 + 0.8 g of AS/ha, safener (Ia) 150 g of AS/ha): category A (category A = 50-100% reduction of the harmful action)
- Reduction of the harmful effect ([11]; herbicide (1.2.1.14) mesosulfuron-methyl 30 g of AS/ha): category A (category A = 50-100% reduction of the harmful action)
- Reduction of the harmful effect [11, 12]: category A (category A = 50-100% reduction of the harmful action)

SMILES: NC(=O)c1ccc(C(F)(F)Cl)[nH]c1=O [safener (Ib), 2-oxo-6-difluorochloromethyl-1,2-dihydropyridine-3-carboxamide]
- action of the herbicide against economically important harmful plants [1]: not, or not substantially, adversely affected
- action of the respective herbicide against economically important harmful plants [2]: not, or not substantially, adversely affected

SMILES: NC(=O)c1ccc(C(F)F)nc1O [safener (Ic), 2-oxo-6-difluoromethyl-1,2-dihydropyridine-3-carboxamide]
- action of the herbicide against economically important harmful plants [1]: not, or not substantially, adversely affected
- action of the respective herbicide against economically important harmful plants [2]: not, or not substantially, adversely affected
